Non-standard residues stand in square brackets, D forms with d. Residues, ends and D or L forms follow the SMILES beside them. *: point of attachment. X1 = Fc1ccc(-c2csc(N3CCOCC3)n2)c(OCCOCCOCCN*)c1F; X2 = O=C(NCCCCCCN*)c1cccc2sc(N3CCOCC3)nc12; Dip = N[C@H](C(=O)O)C(c1ccccc1)c1ccccc1; Chg = N[C@H](C(=O)O)C1CCCCC1; NMeA = CN[C@@H](C)C(=O)O
Experiments:
Type in all cases: physicochemical
[1] = Kinetic solubility of the compound incubated for 60 mins under shaking condition by UV-Vis spectroscopic analysis; details: 1 h
[2] = Distribution coefficient, logD of compound in n-Octanol/PBS at pH 7.4 incubated for 30 mins under shaking condition by UV-Vis spectroscopic analysis; details: for logD: octanol/water, pH 7.4, 0.5 h, BLD = below limit of detection; for logD at 0.5 h: n-octanol/PBS, pH 7.4
[3] = Kinetic solubility of the compound incubated for 60 mins under shaking condition by UHPLC-MS analysis; details: 1 h
[4] = Distribution coefficient, logD of compound in n-Octanol/PBS at pH 7.4 incubated for 30 mins under shaking condition by UHPLC-MS analysis

| log(Kinetic_solubility) ([1]; BLD = below limit of detection) | logD [2] | log(Kinetic_solubility) ([3]; BLD = below limit of detection) | logD at 0.5 h [4] | log(Kinetic_solubility) [1] | logD at 0.5 h [2] | log(Kinetic_solubility) [3] | SMILES |
| --- | --- | --- | --- | --- | --- | --- | --- |
| Bld |  |  | 4.27 |  | 3.92 | -6.77 | O=C1CCC(N2C(=O)c3cccc(NCCOCCOCCOCCn4cc(COc5ccc(N(C(=O)CCl)C(C(=O)NCCc6ccccc6)c6cccs6)cc5Cl)nn4)c3C2=O)C(=O)N1 (stereo not given) |
| Bld | Bld | Bld | 5.5 |  |  |  | Cc1ncsc1-c1ccc([C@H](CC(=O)N2CCC(N3CCC(C#Cc4ccc(C(=O)N[C@H]5C(C)(C)[C@H](Oc6ccc(C#N)c(Cl)c6)C5(C)C)cc4)CC3)CC2)NC(=O)[C@@H]2C[C@@H](O)CN2C(=O)[C@@H](NC(=O)C2(F)CC2)C(C)(C)C)cc1 |
|  | Bld |  | 5.1 | -4.49 |  | -4.55 | CN[C@@H](C)C(=O)N[C@H](C(=O)N1CCC[C@H]1C(=O)N[C@H](C(=O)NCCOCCOCCOc1c(-c2csc(N3CCOCC3)n2)ccc(F)c1F)C(c1ccccc1)c1ccccc1)C1CCCCC1 (H-[NMeA][Chg]P[Dip]-X1) |
| Bld | Bld | Bld | 5.2 |  |  |  | CCOC(=O)c1c(C)n(Cc2ccccc2)c2ccc(OCCCCCCCCCCC(=O)N[C@H](C(=O)N3C[C@H](O)C[C@H]3C(=O)N[C@@H](C)c3ccc(-c4scnc4C)cc3)C(C)(C)C)cc12 |
| Bld | Bld |  | 5 |  |  | -5.8 | Cc1ncsc1-c1ccc([C@H](C)NC(=O)[C@@H]2C[C@@H](O)CN2C(=O)[C@@H](NC(=O)CCCCCCOc2ccc3c(c2)c(C(=O)O)c(C)n3Cc2ccccc2)C(C)(C)C)cc1 |
| Bld | Bld | Bld | 5.15 |  |  |  | CCOC(=O)c1c(C)n(Cc2ccccc2)c2ccc(OCCCCCCC(=O)N[C@H](C(=O)N3C[C@H](O)C[C@H]3C(=O)N[C@@H](C)c3ccc(-c4scnc4C)cc3)C(C)(C)C)cc12 |
| Bld | Bld | Bld | 5.21 |  |  |  | CCOC(=O)c1c(C)n(Cc2ccccc2)c2ccc(OCCCCCCCCC(=O)N[C@H](C(=O)N3C[C@H](O)C[C@H]3C(=O)N[C@@H](C)c3ccc(-c4scnc4C)cc3)C(C)(C)C)cc12 |
|  | Bld |  | 5.02 | -4.89 |  | -5.05 | Cc1ccc(-c2csc(N3CCOCC3)n2)c(OCC(=O)NCCCCC(=O)N[C@H](C(=O)N2C[C@H](O)C[C@H]2C(=O)N[C@@H](C)c2ccc(-c3scnc3C)cc2)C(C)(C)C)c1C |
| Bld | Bld |  | 5.5 |  |  | -6.1 | COc1ccc2c(c1)c(CC(=O)N1CCN(CCC(=O)N[C@H](C(=O)N3C[C@H](O)C[C@H]3C(=O)N[C@@H](C)c3ccc(-c4scnc4C)cc3)C(C)(C)C)CC1)c(C)n2C(=O)c1ccc(Cl)cc1 |
| Bld | Bld | Bld | 4.93 |  |  |  | O=C(COc1c(-c2csc(N3CCOCC3)n2)ccc(F)c1F)NCCCCCCCCCCNc1ccc2nnn(C3CCC(=O)NC3=O)c(=O)c2c1 (stereo not given) |
|  |  |  | 1.27 | -4.16 | 0.867 | -4.19 | O=C1CCC(N2C(=O)c3cccc(NCCOCCOCC(=O)N4CCN(C(=O)c5cc(Cc6n[nH]c(=O)c7ccccc67)ccc5F)CC4)c3C2=O)C(=O)N1 (stereo not given) |
| Bld | Bld |  | 5 |  |  | -7.21 | Cc1ncsc1-c1ccc([C@H](C)NC(=O)[C@@H]2C[C@@H](O)CN2C(=O)[C@@H](NC(=O)CCCCCCCCCCC(=O)N2CCN(C(=O)c3cc(Cc4n[nH]c(=O)c5ccccc45)ccc3F)CC2)C(C)(C)C)cc1 |
|  |  |  | 4.12 | -4.54 | 3.81 | -4.68 | Cc1ncsc1-c1ccc([C@H](C)NC(=O)[C@@H]2C[C@@H](O)CN2C(=O)[C@@H](NC(=O)CCCCn2cc(CN3CCN(C(=O)C[C@@H]4N=C(c5ccc(Cl)cc5)c5c(sc(C)c5C)-n5c(C)nnc54)CC3)nn2)C(C)(C)C)cc1 |
|  |  |  | 3.7 | -3.69 | 3.25 | -3.64 | Cn1c(=O)n(C)c2cc(CNCCOCCNCC3CCN(c4ccc(C(=O)N[C@H]5CC[C@H](Oc6ccc(C#N)c(Cl)c6)CC5)nn4)CC3)ccc21 |
|  |  |  | 3.9 | -4.21 | 3.5 | -4.23 | Cc1ncsc1-c1ccc([C@H](C)NC(=O)[C@@H]2C[C@@H](O)CN2C(=O)[C@@H](NC(=O)COCCOCCOCC(=O)N[C@H](C(=O)N2C[C@H](O)C[C@H]2C(=O)N[C@@H](C)c2ccc(-c3scnc3C)cc2)C(C)(C)C)C(C)(C)C)cc1 |
| Bld |  | Bld | 4 |  | 3.7 |  | COc1cc(C(=O)NCCCCCCNC(=O)COc2c(-c3csc(N4CCOCC4)n3)ccc(F)c2F)ccc1NC(=O)[C@@H]1N[C@@H](CC(C)(C)C)[C@](C#N)(c2ccc(Cl)cc2F)[C@H]1c1cccc(Cl)c1F |

Continued, compound first:

| SMILES | log(Kinetic_solubility) ([1]; BLD = below limit of detection) | logD [2] | log(Kinetic_solubility) ([3]; BLD = below limit of detection) | logD at 0.5 h [4] | log(Kinetic_solubility) [1] | logD at 0.5 h [2] | log(Kinetic_solubility) [3] |
| --- | --- | --- | --- | --- | --- | --- | --- |
| N#Cc1ccc(O[C@H]2CC[C@H](NC(=O)c3ccc(N4CCC(CN5CCN(c6cc7c(cc6F)C(=O)N(C6CCC(=O)NC6=O)C7=O)CC5)CC4)nn3)CC2)cc1Cl (stereo not given in full) [BAVDEGALUTAMIDE] | Bld | Bld | Bld | 5.38 |  |  |  |
| Cc1ncsc1-c1ccc(CNC(=O)[C@@H]2C[C@@H](O)CN2C(=O)[C@@H](NC(=O)COCCOCCOCC(=O)N[C@H](C(=O)N2C[C@H](O)C[C@H]2C(=O)NCc2ccc(-c3scnc3C)cc2)C(C)(C)C)C(C)(C)C)cc1 |  |  |  | 3.19 | -3.93 | 3.7 | -3.98 |
| Cc1ncsc1-c1ccc(CNC(=O)[C@@H]2C[C@@H](O)CN2C(=O)[C@@H](NC(=O)CCCCOCCCCCOCCCCCCNc2cccc3c2C(=O)N(C2CCC(=O)NC2=O)C3=O)C(C)(C)C)cc1 (stereo not given in full) | Bld | Bld |  | 5.2 |  |  | -7.05 |
| Cc1ncsc1-c1ccc([C@H](C)NC(=O)[C@@H]2C[C@@H](O)CN2C(=O)[C@@H](NC(=O)CCCCn2cc(CCCC(=O)N3CCN(C(=O)c4cc(Cc5n[nH]c(=O)c6ccccc56)ccc4F)CC3)nn2)C(C)(C)C)cc1 |  |  |  | 3 | -4.37 | 2.89 | -4.34 |
| O=C(CCCCCCCCCCC(=O)N1CCN(C(=O)c2cc(Cc3n[nH]c(=O)c4ccccc34)ccc2F)CC1)NCCNc1cccc2c1C(=O)N(C1CCC(=O)NC1=O)C2=O (stereo not given) | Bld |  |  | 3.64 |  | 3.48 | -6.13 |
| Cn1c(=O)n(C)c2cc(CNCCOCCOCCNCC3CCN(c4ccc(C(=O)N[C@H]5CC[C@H](Oc6ccc(C#N)c(Cl)c6)CC5)nn4)CC3)ccc21 |  |  |  | 2.52 | -3.07 | 2.45 | -3.06 |
| Cc1ncsc1-c1ccc([C@H](CC(=O)NCCCCCCNC(=O)COc2c(-c3csc(N4CCOCC4)n3)ccc(F)c2F)NC(=O)[C@@H]2C[C@@H](O)CN2C(=O)[C@@H](NC(=O)C2(F)CC2)C(C)(C)C)cc1 |  | Bld |  | 4.82 | -5 |  | -5.14 |
| COc1ccc2c(c1)c(CC(=O)N1CCN(CCOCCOCC(=O)N[C@H](C(=O)N3C[C@H](O)C[C@H]3C(=O)N[C@@H](C)c3ccc(-c4scnc4C)cc3)C(C)(C)C)CC1)c(C)n2C(=O)c1ccc(Cl)cc1 |  |  |  | 4.33 | -5.11 | 4.1 | -5.22 |
| Cc1ncsc1-c1ccc([C@H](C)NC(=O)[C@@H]2C[C@H](O)CN2C(=O)[C@@H](NC(=O)COCCOCCOCC(=O)N[C@H](C(=O)N2C[C@@H](O)C[C@H]2C(=O)N[C@@H](C)c2ccc(-c3scnc3C)cc2)C(C)(C)C)C(C)(C)C)cc1 |  |  |  | 3.5 | -4.62 | 3.74 | -4.66 |
| Cn1c(=O)n(C)c2cc(CNCCCNCC3CCN(c4ccc(C(=O)N[C@H]5CC[C@H](Oc6ccc(C#N)c(Cl)c6)CC5)nn4)CC3)ccc21 |  | Bld |  | 4.43 | -4.28 |  | -4.14 |
| COc1ccc2c(c1)c(CC(=O)NCCN1CCN(CCOCCOCC(=O)N[C@H](C(=O)N3C[C@H](O)C[C@H]3C(=O)N[C@@H](C)c3ccc(-c4scnc4C)cc3)C(C)(C)C)CC1)c(C)n2C(=O)c1ccc(Cl)cc1 |  | Bld |  | 5.1 | -4.59 |  | -4.62 |
| Cc1ncsc1-c1ccc(CNC(=O)[C@@H]2C[C@@H](O)CN2C(=O)[C@@H](NC(=O)COCCOCCOCCOCCOCCOCC(=O)N[C@H](C(=O)N2C[C@H](O)C[C@H]2C(=O)NCc2ccc(-c3scnc3C)cc2)C(C)(C)C)C(C)(C)C)cc1 |  |  |  | 3 | -3.25 | 3.09 | -3.24 |
| CN[C@@H](C)C(=O)N[C@H](C(=O)N1CCC[C@H]1C(=O)N[C@H](C(=O)NCCCCCCNC(=O)c1cccc2sc(N3CCOCC3)nc12)C(c1ccccc1)c1ccccc1)C1CCCCC1 (H-[NMeA][Chg]P[Dip]-X2) |  | Bld |  | 5.1 | -4.66 |  | -4.72 |
| Cc1ncsc1-c1ccc([C@H](C)NC(=O)[C@@H]2C[C@@H](O)CN2C(=O)[C@@H](NC(=O)CN2CCN(C(=O)C[C@@H]3N=C(c4ccc(Cl)cc4)c4c(sc(C)c4C)-n4c(C)nnc43)CC2)C(C)(C)C)cc1 |  | Bld |  | 4.56 | -4.79 |  | -4.9 |

— ChEMBL document CHEMBL5579898, “Between Theory and Practice: Computational/Experimental Integrated Approaches to Understand the Solubility and Lipophilicity of PROTACs” (J Med Chem, 2024)
